{
  "source": "patent US9463251B2",
  "about": "“Anti-ETBR antibodies and immunoconjugates” (Genentech, Inc., priority 2012, dated 2016)",
  "format_in_all_cases": "cell-based",
  "conditions_in_all_cases": "five days, read-out: EC50 (free linker-drug, without antibody)",
  "key": {"[1]": {"system": "In vivo-derived resistant UACC-257X2.2 cells", "assay": "In vitro cell proliferation (CellTiter-Glo), in vivo-derived resistant cells", "experimental": "Tumor #359 was harvested and the cells were dissociated for growth in vitro (referred to herein as in vivo-derived resistant UACC-257X2.2 cells).\n(§1) In vivo- and in vitro-derived resistant UACC-257X2.2 cells were then assayed for sensitivity to increasing concentrations of anti-ETBR-vc-MMAE.\n(§2) In vitro cell proliferation of the cell lines in the presence of the immunoconjugates was assessed. Cells were plated at 1,500 cells per well in 50 μL of normal growth medium in 96-well clear-bottom plates. Twenty-four hours later, an additional 50 μL of culture medium with serial dilutions of immunoconjugates (ch5E9-vc-MMAE or control anti-gD-vc-MMAE) were added to triplicate wells. Five days later, cell survival was determined using CellTiter-Glo Luminescent Cell Viability Reagent (G7572, Promega Corporation, Madison, Wis.) using an EnVision 2101 Mutilabel Reader (Perkin-Elmer, Waltham, Mass.)."}, "[2]": {"system": "Parental UACC-257X2.2 cells", "assay": "In vitro cell proliferation (CellTiter-Glo), parental cells", "experimental": "as §2"}, "[3]": {"system": "In vitro-derived resistant UACC-257X2.2 cells", "assay": "In vitro cell proliferation (CellTiter-Glo), in vitro-derived resistant cells", "experimental": "For resistance developed in vitro, UACC-257X2.2 cells were adapted to increasing concentrations of anti-ETBR-vc-MMAE in culture dishes over the course of two months.\nas §1, §2"}},
  "note": "Starred links: 1 amine or outer side, 2 acyl side, 3 side chain; linkers in the order of their positions; H or OH if unused. Non-standard residues stand in square brackets, D forms with d. Residues, ends and D or L forms follow the SMILES beside them. *: point of attachment. Dolaproine = CO[C@@H]([C@@H]1CCCN1)[C@@H](C)C(=O)O; Hexanoyl(6-maleimido) = O=C1C=CC(=O)N1CCCCCC(=O)*; Dil = CC[C@H](C)[C@H](NC)[C@@H](CC(=O)O)OC; PABC = O=C(OCc1ccc(N[*:1])cc1)[*:2]; X1 = C[C@@H](N*)[C@@H](O)c1ccccc1; Cit = NC(=O)NCCC[C@H](N)C(=O)O; NMeV = CN[C@H](C(=O)O)C(C)C",
  "data": [
    {"smiles": "CC[C@H](C)[C@@H]([C@@H](CC(=O)N1CCC[C@H]1[C@H](OC)[C@@H](C)C(=O)N[C@H](C)[C@@H](O)c1ccccc1)OC)N(C)C(=O)[C@@H](NC(=O)[C@H](C(C)C)N(C)C(=O)OCc1ccc(NC(=O)[C@H](CCCNC(N)=O)NC(=O)[C@@H](NC(=O)CCCCCN2C(=O)C=CC2=O)C(C)C)cc1)C(C)C", "note": "[MC-vc-PAB-MMAE] ({Hexanoyl(6-maleimido)}-V[Cit][PABC][NMeV]V[Dil][Dolaproine]-X1)", "values": [
      {"measurement": "EC50", "setting": "[1]", "value": 0.77, "unit": "nM"},
      {"measurement": "EC50", "setting": "[2]", "value": 0.28, "unit": "nM"},
      {"measurement": "EC50", "setting": "[3]", "value": 3.5, "unit": "nM"}
    ]}
  ]
}
